From patent US10568892B2, “Cycloartane tetracyclic triterpenoid compound, preparation method therefor and use thereof” (Hefei Cosource Pharmaceuticals Inc., priority 2016, dated 2020)
Marks after values point to notes of the source that are not given here.

Columns and labels:
[1] = test system: ventricular papillary muscle cell of guinea pig; test: Action potential of the ventricular papillary muscle cell of guinea pig (electrophysiological recording); format: cell-based; settings: for Effect on the APD value of the action potential of the papillary muscle (in words): Table 3 summary
Description: Method: One guinea pig was taken to violently hit the back of the brain such that it fainted. The common carotid artery was cut off for bleeding to kill the guinea pig. The chest was incised to expose the heart, and the ventricle was cut open along the interventricular septum to expose the lumen of the left ventricle. The papillary muscles were quickly taken out and placed in a Kreb's solution saturated with O2 (mixed gas of 95% O2 and 5% CO2) at 0° C. After the microscopic dressing, the papillary muscle specimen was fixed with a stainless steel needle on the silicone rubber at the bottom of the perfusion bath, and perfused with the oxygen-saturated Kreb's solution. The relevant parameters for perfusion: the temperature was 37±0.5° C., and the flow rate was 4 mL/min.
Cellular action potentials were recorded using a conventional electrophysiological method. The glass electrode filled with 3M KCl saturated solution and having a tip resistance of 15-30 MΩ was fixed on the microelectrode manipulator MP-2. The glass electrode was gently inserted into the superficial layer of the prepared papillary muscle specimen using a microelectrode pusher. The electrode was adjusted to provide the predetermined bioelectrical stimulation with the triple-channel SEN-7203 electronic stimulator and SS-202 J isolator. The bioelectrical signal was amplified by the MEZ-8301 amplifier and then input to the computerized electrophysiological recording and analysis system Powerlab 4/25. Subsequently, the relevant parameters of the action potential for the ventricular papillary muscle were analyzed through the analysis system. The relevant parameters for electrical stimulation: 30 ms latency, 7 ms wavewidth, 1 Hz frequency, 52.1 my stimulation intensity.
In the compound screening test stage, after the ventricular papillary muscle specimen of the guinea pig was fixed, it was first perfused with a normal Kreb's solution for about 85 minutes for stabilization, and the relevant parameters of the cellular action potential before administration were recorded at about 80 min after the start of perfusion. The three-limb tube was used to convert the perfusates containing the title compounds. The title compounds were continuously perfused for about 25 min successively with low (0.0005 μM), medium (0.005 μM), and high (0.05 μM) concentrations, respectively. At about 20 min after the start of drug perfusions at different concentrations, the relevant parameters of the action potentials for the ventricular papillary muscle of guinea pig were observed and recorded, respectively. The normal Kreb's solution was used to perfuse and elute for about 25 min during the intervals between drug perfusions at different concentrations.
The experiment was divided into the following five groups with 6 animals in each group: a vehicle control group, a 369 low dose (0.0005 μM) group, a 369 medium dose (0.005 μM) group, a 369 high dose (0.05 μM) group, and an amiodarone (10 μM) positive control group. After the ventricular papillary muscle specimen of the guinea pig was fixed, it was first perfused with a normal Kreb's solution for about 85 minutes for stabilization, and the relevant parameters of the cellular action potential before administration were recorded at about 80 min after the start of perfusion. According to groups, the three-limb tube was configured to convert the perfusates containing the vehicle, positive control, or Compound 369 at the corresponding concentrations to continuously perfuse for about 25 min. At about 20 min after the start of the perfusions, the relevant parameters of the action potentials for the ventricular papillary muscle of guinea pig were observed and recorded.

[2] = test system: guinea pig heart; test: Atrial fibrillation induced by high- and low-potassium Langendorff perfusion of the guinea pig heart; settings: 1 μM; within 60 min of low-potassium perfusion
Text: Method: a total of 24 guinea pigs were divided into 4 groups according to body weight, and were sacrificed. The heart was quickly taken out, and the blood was squeezed in the ice bath perfusion solution. The heart was quickly transferred in the Langendorff perfusion system, and the perfusion at a constant rate was started by turning on the oxygen-saturated perfusate. One end of the electrode was placed at the cardiac apex, and one end was placed at the right atrium (the position of the atrial appendage). The electrocardiogram was recorded on the computer.
After the heart was stabilized, 10 min after the perfusion of high-K perfusate, blank vehicle, 0.1 μM, 1 μM, and 10 μM of Compound 369, 1 μM Amiodarone and Cyclovirobuxine D were simultaneously administrated and the high K perfusion was continued for 20 min, respectively. Then, the high K perfusion was removed to administrate the low-K perfusate, and the electrocardiogram was obtained at the same time to record whether there was atrial fibrillation within 60 min of low-potassium perfusion.

[3] = test system: SD rats; test: Rat myocardial ischemia model with coronary artery ligation and reperfusion (arrhythmia incidence); format: in vivo; settings: injection (sublingually) 5 min before ischemia
Text: Method: SD rats were anesthetized with pentobarbital, and a cervical midline incision was made to separate and cut off the trachea such that it was connected to a respirator. The skin was cut along the midline of the left clavicle of the rat, and the chest was opened between the left third and fourth ribs to gently squeeze out the heart. The pericardium was opened, the needle was inserted at the left edge of the pulmonary artery cone and 2 mm at the lower edge of the left atrial appendage. The 6-0 non-invasive suture was threaded through the superficial myocardium, with the left anterior descending coronary artery (LAD) located thereon. After stabilization for 5 min, a double-layer plastic cannula was put on, and the cable tie was tighten to complete the myocardial ischemia induced by left coronary artery occlusion. The criterion for myocardial ischemia is the occurrence of myocardial infarction (St-segment ran up or T-wave was shown as high sharp wave) in the electrocardiogram and the presence of local cyanosis in the heart. After 5 min of myocardial ischemia, the inner cannula was withdrawn, that is, the wire knot was released for reperfusion, and the electrocardiogram of reperfusion in the rat was recorded.
The administration was performed at 5 min before the ischemia by coronary artery ligation, and the administration mode was injection administration (sublingually).

[4] = test system: SD rats; test: Single-dose toxicity (MTD) in SD rats; format: in vivo; settings: SD rat; single intravenous injection
Text: (§1) The results of the experimental study on the toxicity of Compound 369 administrated through a single intravenous or intragastrical administration in SD rats and KM mice are shown in Table 9.

[5] = test system: KM mice; test: Single-dose toxicity (MTD) in KM mice; format: in vivo; settings: KM mouse; single intragastrical administration
Text: as §1

[6] = Pharmacokinetics in SD rats; format: in vivo, rat; settings: SD rats, 2 mg/kg
Description: Method: twelve SD male rats were divided into four groups: 2 mg/kg of Compound 369 or cyclovirobuxine D was single dose through the intravenous injection or intragastrical administration, respectively. In the intravenous and intragastrical groups, blood samples (about 0.3 Ml) were collected from the posterior orbital venous plexus pro-dose and 0.25 h, 0.5 h, 1 h, 2 h, 4 h, 6 h, 8 h, and 12 h post-dose. The concentrations of Compound 369 and cyclovirobuxine D in plasma samples were determined by LC-MS/MS, and the pharmacokinetic parameters were calculated by DAS.3.0 software.

[7] = Pharmacokinetics in Beagle canines; format: in vivo; settings: Beagle canines; 2 mg/kg; intragastrical administration
Description: Method: Six healthy male Beagle canines were selected and divided into two groups. 2 mg/kg of Compound 369 or cyclovirobuxine D was administrated intragastrically, respectively. Blood samples (about 2 mL) were collected from the limb venous of canines 0 h before administration as well as 0.25 h, 0.5 h, 1 h, 2 h, 4 h, 6 h, 8 h, and 12 h after administration. The concentrations of Compound 369 and cyclovirobuxine D in plasma samples were determined by LC-MS/MS, and the pharmacokinetic parameters were calculated by DAS.3.0 software.

[8] = test system: ventricular myocytes of guinea pig; settings: literature, cited from earlier work
[9] = n = 6, x ± SD, 10 μM group, baseline
[10] = Cavia porcellus, 20 min, screening stage, 0.0005 μM, read-out: APD, Change rate (%)
[11] = Cavia porcellus, 20 min, screening stage, 0.005 μM, read-out: APD, Change rate (%)
[12] = Cavia porcellus, 20 min, screening stage, 0.05 μM, read-out: APD, Change rate (%)
[13] = screening stage, 0.0005 μM, about 20 min perfusion
[14] = screening stage, 0.005 μM, about 20 min perfusion
[15] = screening stage, 0.05 μM, about 20 min perfusion

CCCCc1oc2ccccc2c1C(=O)c1cc(I)c(OCCN(CC)CC)c(I)c1 [Amiodarone, reference compound]
percent change in action potential duration at 10 µM ([1]; Cavia porcellus, 20 min, n = 6, x ± SD, 10 μM, read-out: APD, Change rate (%)): 56.8%
APD50, Change rate (%) ([1]; n = 6, x ± SD, 10 μM): 93.34% ± 53.59%^b
APD50, Post-administration ([1]; n = 6, x ± SD, 10 μM): 0.0590 ± 0.0269^a
APD90, Change rate (%) ([1]; n = 6, x ± SD, 10 μM): 68.91% ± 33.59%^b
APD90, Post-administration ([1]; n = 6, x ± SD, 10 μM): 0.0862 ± 0.0275^a
APD, Post-administration ([1]; n = 6, x ± SD, 10 μM): 0.1028 ± 0.0258^a
APD50, Pre-administration [1, 9]: 0.0313 ± 0.0131
APD90, Pre-administration [1, 9]: 0.0524 ± 0.0175
Incidence (%) of atrial fibrillation [2]: 17%
Number of animals developing atrial fibrillation [2]: 1
Death (%) ([3]; 3 mg/kg): 13%
Death n ([3]; 3 mg/kg): 1
Ventricular fibrillation (%) ([3]; 3 mg/kg): 38%
Ventricular fibrillation n ([3]; 3 mg/kg): 3
Ventricular premature beat (%) ([3]; 3 mg/kg): 100%
Ventricular premature beat n ([3]; 3 mg/kg): 8
Ventricular tachycardia (%) ([3]; 3 mg/kg): 87%
Ventricular tachycardia n ([3]; 3 mg/kg): 7

CN[C@H]1CC[C@]23C[C@]24CC[C@]2(C)C(C(=O)COC(=O)CCC(=O)O)=CC[C@@]2(C)[C@@H]4CC[C@H]3C1(C)C.Cl [Compound 522, (3β,5α)-4,4,14-trimethyl-3-(methylamino)-21-(3-carboxypropionyloxy)-9,19-cyclopregnan-16-en-20-one hydrochloride]
percent change in action potential duration at 0.0005 µM [1, 10]: 2.87%
percent change in action potential duration at 0.005 µM [1, 11]: 27.2%
percent change in action potential duration at 0.05 µM [1, 12]: 36%
Effect on the APD value of the action potential of the papillary muscle (in words) ([1]; screening stage): a certain degree of prolonged effects
APD, Post-administration [1, 13]: 0.0824
APD, Post-administration [1, 14]: 0.0996
APD, Post-administration [1, 15]: 0.1102

CN[C@H]1CC[C@]23C[C@]24CC[C@]2(C)C(C(=O)COC(=O)c5ccccc5C(=O)O)=CC[C@@]2(C)[C@@H]4CC[C@H]3C1(C)C.Cl [Compound 570, (3β,5α)-4,4,14-trimethyl-3-(methylamino)-21-(2-carboxybenzoyloxy)-9,19-cyclopregnan-16-en-20-one hydrochloride]
percent change in action potential duration at 0.0005 µM [1, 10]: 12.3%
percent change in action potential duration at 0.005 µM [1, 11]: 21.8%
percent change in action potential duration at 0.05 µM [1, 12]: 30.5%
Effect on the APD value of the action potential of the papillary muscle (in words) ([1]; screening stage): a certain degree of prolonged effects
APD, Post-administration [1, 13]: 0.0813
APD, Post-administration [1, 14]: 0.0850
APD, Post-administration [1, 15]: 0.928

CN[C@@H](C)[C@H]1[C@H](O)C[C@@]2(C)[C@@H]3CC[C@H]4C(C)(C)[C@@H](NC)CC[C@@]45C[C@@]35CC[C@]12C [Cyclovirobuxine D, reference compound]
Incidence (%) of atrial fibrillation [2]: 83%
Number of animals developing atrial fibrillation [2]: 5
Death (%) ([3]; 1 mg/kg): 50%
Death n ([3]; 1 mg/kg): 3
Ventricular fibrillation (%) ([3]; 1 mg/kg): 83%
Ventricular fibrillation n ([3]; 1 mg/kg): 5
Ventricular premature beat (%) ([3]; 1 mg/kg): 100%
Ventricular premature beat n ([3]; 1 mg/kg): 6
Ventricular tachycardia (%) ([3]; 1 mg/kg): 100%
Ventricular tachycardia n ([3]; 1 mg/kg): 6
Maximum tolerance dose (MTD) [4]: 5 mg/kg
Maximum tolerance dose (MTD) [5]: 400 mg/kg
AUCt ([6]; intragastrical administration): 0.1106 µg·h/mL
Cmax ([6]; intragastrical administration): 0.0163 µg/mL
F ([6]; intragastrical administration): 36%
T1/2 ([6]; intragastrical administration): 18.85 h
Tmax ([6]; intragastrical administration): 2.75 h
AUCt ([6]; intravenous injection): 0.31 µg·h/mL
Cmax ([6]; intravenous injection): 0.1462 µg/mL
T1/2 ([6]; intravenous injection): 8.54 h
Tmax ([6]; intravenous injection): 0.25 h
AUCt [7]: 0.2743 µg·h/mL
Cmax [7]: 0.01909 µg/mL
T1/2 [7]: 15.90 h
Tmax [7]: 3.55 h
Effect on APD of the action potential (in words) ([8]; 0.024 μM): can prolong the APD
Spontaneous activity frequency of cardiomyocytes (in words) ([8]; 0.012-0.036 μM): slow down or even disappear
